Source: US6825209B2, “Compounds having unique CB1 receptor binding selectivity and methods for their production and use” (Research Triangle Institute, priority 2002, dated 2004)
Read-outs that look alike come from different tables or passages of the source.

Experiments:
CB1 receptor = molecular target: T1, CB1 receptor (Rattus norvegicus, UniProt P20272); assay: Radioligand displacement in whole rat brain (CB1) membrane preparations; assay type: binding; conditions: Table 4, parallel synthesis analogs; for Ki: n = 1, concentration assumes 100% yield; for Max. Disp. %, 3H-CP55940 / Max. Disp. %, 3H-SR141716A / Max. Disp. %, 3H-WIN55212-2: n = 1
T1 construct: Whole rat brains or dissected regions from live CD rats; tissue Charles River or Pel-Freez Biologicals; host or cells: whole rat brain (CD rats), P2 membrane
Excerpt: CB1 receptor affinity in rat brain.
Methods—membrane preparation from brain. The methods for tissue preparation are essentially those described by Devane et al. (1988) as modified by Compton et al. (1993) and later by Thomas et al. (1998). Whole rat brains or dissected regions from live CD rats from Charles River or Pel-Freez Biologicals (Rogers, Ark.), or human brain sections obtained from the National Disease Research Institute, were allowed to thaw to room temperature on ice. Both whole brain and dissected brain regions were used because different brain regions may express different cannabinoid receptor subtypes (Skaper et al., 1996; Thomas et al., 1998). The tissue was homogenized with a Kontes Potter-Elvehjem glass-Teflon grinding system (Fisher Scientific, Springfield, N.J.) in buffer 1 (320 mM sucrose, 2 mM EDTA, 5 mM MgCl2. The homogenate was centrifuged at 1600 g for 10 min. The supernatant was saved and combined with the two subsequent supernatants obtained from washing and 1600 g centrifugation of the P1 pellet. The combined supernatant fractions were then centrifuged at 39,000 g for 15 min. The P2 pellet was resuspended in 50 mL of buffer 2 (50 mM Tris.HCl, 2 mM EDTA, 5 mM MgCl2, pH 7.0), incubated at 37° C. for 10 min, then centrifuged at 23,000 g for 10 min. The P2 membrane was resuspended in 50 mL of buffer 2, incubated at 30° C. for 40 min, then centrifuged at 11,000 g for 15 min. The final wash-treated P2 pellet was resuspended in assay buffer 3 (50 mM Tris.HCl, 1 mM EDTA, 3 MM MgCl2, pH 7.4). Protein concentrations were determined by the method of Bradford (1976) using Coomassie brilliant blue dye (Bio-Rad, Richmond, Calif.) and BSA standards (bovine serum albumin, fatty acid free, Sigma Chemical Co., St. Louis, Mo.) prepared in assay buffer 3. The membrane preparation was divided into aliquots and stored at −80° C. For use in the binding assay, an aliquot of frozen membranes was thawed on ice and diluted to a concentration of ca. 0.2 mg/mL in assay buffer.
Methods—binding assay in brain membrane preparation. The methods for ligand binding are essentially those described by Devane et al. (1988) with the exception that we used a filtration assay. […] All cannabinoid analogs were prepared by suspension in buffer A from a 1-5 mg/mL ethanolic stock. Following incubation at 30° C. for 1 h, binding was terminated by vacuum filtration through pretreated filters in a 96-well sampling manifold (Millipore, Bedford, Mass.). Reaction vessels were washed at least 3 times with 1 mL of ice cold buffer B (50 mM Tris.HCl, 1 mg/mL BSA). The filter plates were air-dried and sealed on the bottom. Liquid scintillant was added to the wells and the top sealed. After incubating the plates in cocktail for at least 2 h, the radioactivity present was determined by liquid scintillation spectrometry. Assays were done in duplicate, and results represent the combined data of three to six independent experiments. All assays were performed in polypropylene test tubes. The GF/C glassfiber filter plates (Packard, Meriden, Conn.) were pretreated in buffer B for at least 1 h.
(§1) Data analysis. Saturation and displacement data were analyzed by unweighted nonlinear regression of receptor binding data. For displacement studies, curve-fitting and IC50 calculation were done with GraphPad Prism (GraphPad Software, Inc., San Diego, Calif.), which fits the data to one and two-site models and compares the two fits statistically. A similar approach was used for the analysis of isotherm data for calculation of Kd's. A two-site fit was accepted only if it was statistically significant (p<0.05) and the following results were not observed:
(§2) IC50 values were then converted to Ki values by reported methods (Cheng and Prusoff, 1973). The statistical evaluation of curve-fitting data allowed for a non-arbitrary conclusion based on the displacement data.

human CB1 receptor = molecular target: T2, human CB1 receptor (Homo sapiens, UniProt P21554); assay: Radioligand displacement in human CB1 receptor-transfected cells (HEK-293); assay type: binding
T2 construct: expressed in transfected cells; host or cells: HEK-293
Experimental: Human CB1 receptor affinity. The alkyl amide analogs of the present invention were examined using transfected cell lines expressing the human CB1 receptor (Table 3).
Methods—binding assay in transfected cell lines. The methods used for performing binding assays in transfected cells expressing human CB1 or CB2 receptors are those used above. The CB1 receptor involved a HEK-293 expression system whereas the CB2 receptor was expressed in CHO-K1 cells. […] The incubations and separations were then performed as described above for rat brain membrane preparations.
as §1, §2

[1] = displacement of 3H-CP55940, whole rat brain, 3H-CP55940
[2] = displacement of 3H-SR141716A, whole rat brain, 3H-SR141716A
[3] = displacement of 3H-WIN55212-2, whole rat brain, 3H-WIN55212-2
[4] = displacement of 3H-CP55940, human CB1 transfected cells, 3H-CP55940, Table 5, parallel synthesis analogs, concentration assumes 100% yield
[5] = displacement of 3H-SR141716A, human CB1 transfected cells, 3H-SR141716A, Table 5, parallel synthesis analogs, concentration assumes 100% yield
[6] = displacement of 3H-WIN55212-2, human CB1 transfected cells, 3H-WIN55212-2, Table 5, parallel synthesis analogs, concentration assumes 100% yield
[7] = human CB1 transfected cells, 3H-CP55940, Table 5, parallel synthesis analogs
[8] = human CB1 transfected cells, 3H-SR141716A, Table 5, parallel synthesis analogs
[9] = human CB1 transfected cells, 3H-WIN55212-2, Table 5, parallel synthesis analogs

T1 sequence (P20272 whole entry): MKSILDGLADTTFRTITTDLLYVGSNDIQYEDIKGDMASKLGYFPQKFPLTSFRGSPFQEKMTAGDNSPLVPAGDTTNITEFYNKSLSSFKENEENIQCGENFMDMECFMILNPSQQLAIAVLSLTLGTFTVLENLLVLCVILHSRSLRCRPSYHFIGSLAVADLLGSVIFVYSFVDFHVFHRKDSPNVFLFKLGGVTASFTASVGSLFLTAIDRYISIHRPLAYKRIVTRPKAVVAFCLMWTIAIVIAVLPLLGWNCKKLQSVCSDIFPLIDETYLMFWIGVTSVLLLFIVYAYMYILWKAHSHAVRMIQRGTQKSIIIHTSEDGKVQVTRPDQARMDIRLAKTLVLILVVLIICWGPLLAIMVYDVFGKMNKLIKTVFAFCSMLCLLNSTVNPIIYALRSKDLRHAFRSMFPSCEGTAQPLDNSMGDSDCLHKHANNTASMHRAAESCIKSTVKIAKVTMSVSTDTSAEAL
T2 sequence (P21554 whole entry): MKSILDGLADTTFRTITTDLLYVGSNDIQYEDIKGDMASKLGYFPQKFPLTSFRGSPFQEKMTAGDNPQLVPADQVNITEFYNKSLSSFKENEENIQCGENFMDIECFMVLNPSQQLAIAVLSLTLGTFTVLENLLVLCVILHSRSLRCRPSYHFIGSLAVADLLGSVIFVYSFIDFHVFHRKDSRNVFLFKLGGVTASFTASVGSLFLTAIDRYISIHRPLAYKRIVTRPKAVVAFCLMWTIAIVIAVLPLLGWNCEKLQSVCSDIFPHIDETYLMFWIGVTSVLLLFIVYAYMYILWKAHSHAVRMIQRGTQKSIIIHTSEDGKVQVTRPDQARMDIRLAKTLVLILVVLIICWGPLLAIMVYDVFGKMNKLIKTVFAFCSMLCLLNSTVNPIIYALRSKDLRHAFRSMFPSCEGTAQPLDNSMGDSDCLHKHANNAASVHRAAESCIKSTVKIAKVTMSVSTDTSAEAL

Row | Ki (CB1 receptor; [1]) [µM] | Ki (CB1 receptor; [2]) [µM] | Ki (CB1 receptor; [3]) [µM] | Max. Disp. %, 3H-CP55940 (CB1 receptor; whole rat brain, 3H-CP55940) [%] | Max. Disp. %, 3H-SR141716A (CB1 receptor; whole rat brain, 3H-SR141716A) [%] | Max. Disp. %, 3H-WIN55212-2 (CB1 receptor; whole rat brain, 3H-WIN55212-2) [%] | Ki (human CB1 receptor; [4]) [µM] | Ki (human CB1 receptor; [5]) [µM] | Ki (human CB1 receptor; [6]) [µM] | Max. Disp. %, 3H-CP55940 (human CB1 receptor; [7]) [%] | Max. Disp. %, 3H-SR141716A (human CB1 receptor; [8]) [%] | Max. Disp. %, 3H-WIN55212-2 (human CB1 receptor; [9]) [%] | SMILES | Max. Disp. %, 3H-CP55940 (human CB1 receptor) [%] | Max. Disp. %, 3H-SR141716A (human CB1 receptor) [%] | Max. Disp. %, 3H-WIN55212-2 (human CB1 receptor) [%] | Ki (human CB1 receptor; displacement of 3H-CP55940) [µM] | Ki (human CB1 receptor; displacement of 3H-SR141716A) [µM] | Ki (human CB1 receptor; displacement of 3H-WIN55212-2) [µM]
1 | 0.0926 | 0.0407 | 0.0247 | 78.8 | 95.1 | 82.7 | 0.0569 | 0.0161 | 0.0745 | 80.3 | 96.3 | 100 | COc1ccc(CCNC(=O)c2nn(-c3ccc(Cl)cc3Cl)c(-c3ccc(Cl)cc3)c2C)cc1 [AM-29] |  |  |  |  |  | 
2 | 0.194 | 0.0446 | 0.152 | 88.3 | 90.5 | 89.0 | 0.0577 | 0.021 | 0.166 | 66.3 | 90.4 | 74.6 | Cc1c(C(=O)N2CCc3ccccc3C2)nn(-c2ccc(Cl)cc2Cl)c1-c1ccc(Cl)cc1 [AM-50] |  |  |  |  |  | 
3 | 0.0714 | 0.0298 | 0.326 | 84.7 | 100 | 94.9 | 0.106 | 0.0136 | 0.162 | 96.1 | 99.5 | 100 | Cc1c(C(=O)NCCc2ccc(O)cc2)nn(-c2ccc(Cl)cc2Cl)c1-c1ccc(Cl)cc1 [AM-52] |  |  |  |  |  | 
4 | 0.091 | 0.0118 | 0.0304 | 96.4 | 95.4 | 85.8 | 0.22 | 0.101 | 0.128 | 62.6 | 87.3 | 68.1 | COc1ccc(NC(=O)c2nn(-c3ccc(Cl)cc3Cl)c(-c3ccc(Cl)cc3)c2C)cc1 [AN-2] |  |  |  |  |  | 

Row | SMILES | Ki (CB1 receptor; [1]) [µM] | Ki (CB1 receptor; [2]) [µM] | Ki (CB1 receptor; [3]) [µM] | Max. Disp. %, 3H-CP55940 (CB1 receptor; whole rat brain, 3H-CP55940) [%] | Max. Disp. %, 3H-SR141716A (CB1 receptor; whole rat brain, 3H-SR141716A) [%] | Max. Disp. %, 3H-WIN55212-2 (CB1 receptor; whole rat brain, 3H-WIN55212-2) [%] | Ki (human CB1 receptor; [4]) [µM] | Ki (human CB1 receptor; [5]) [µM] | Ki (human CB1 receptor; [6]) [µM] | Max. Disp. %, 3H-CP55940 (human CB1 receptor; [7]) [%] | Max. Disp. %, 3H-SR141716A (human CB1 receptor; [8]) [%] | Max. Disp. %, 3H-WIN55212-2 (human CB1 receptor; [9]) [%] | Max. Disp. %, 3H-CP55940 (human CB1 receptor) [%] | Max. Disp. %, 3H-SR141716A (human CB1 receptor) [%] | Max. Disp. %, 3H-WIN55212-2 (human CB1 receptor) [%] | Ki (human CB1 receptor; displacement of 3H-CP55940) [µM] | Ki (human CB1 receptor; displacement of 3H-SR141716A) [µM] | Ki (human CB1 receptor; displacement of 3H-WIN55212-2) [µM]
5 | CCCCCCCCCCNC(=O)c1nn(-c2ccc(Cl)cc2Cl)c(-c2ccc(Cl)cc2)c1C [BT-1] | 0.0928 | 0.045 | 1.39 | 83.6 | 92.5 | 67.4 |  |  |  |  |  |  | 94.5 | 95.4 | 12.4 | 0.184 | 0.0246 | 0.0638
